Reference: article PMC9388626, “STUB1 is an intracellular checkpoint for interferon gamma sensing” (Scientific Reports, 2022)
Peptide text beside a SMILES is read from it.

What was measured:
STUB1 (aa25–aa153) [1] = target: T1, STUB1 (aa25–aa153) (Homo sapiens, UniProt Q9UNE7); test: Competitive fluorescence polarization assay; assay type: binding; conditions: 15 nM 5-FAM-[…] tracer, 1 µM STUB1, PBS pH 7.4, 0.01% Tween 20, room temperature, 30 min; mean ± s.e., six replicates from two independent experiments
T1 sequence (Q9UNE7 25-153): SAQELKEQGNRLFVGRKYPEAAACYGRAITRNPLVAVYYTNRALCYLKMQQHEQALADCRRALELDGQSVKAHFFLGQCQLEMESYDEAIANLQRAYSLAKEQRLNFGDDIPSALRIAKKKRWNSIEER
Method: The assays were performed at room temperature using assay buffer (PBS, pH 7.4, 0.01% v/v Tween 20) and black 384-well non-binding polystyrene microplate (Greiner Bio-one, #784900). The peptide of interest was first diluted (10-point, threefold serial dilution) with the assay buffer on the microplate to have a volume of 10 µl in each well. This was followed by the addition of 10 µl mixture containing 5-FAM-[…]-CO2H (30 nM) and the recombinant STUB1 protein (2 µM). The final assay solution (20 µl) contains 5-FAM-labeled tracer peptide (15 nM), protein (1 µM) and peptide of interest (5 nM to 100 µM). After 30 min incubation in the dark, the microplate was read with TECAN Infinite M1000 PRO (Ex: 470 nm, Em: 520 nm, bandwidth: 5 nm, G-factor = 1.05, gain: optimal, #flashes = 10, settle time = 0 ms, z position: calculated from well). Value of polarization (mP) = 1000 × (G × intensity‖ − intensity ⊥ )/(G × intensity‖ + intensity ⊥ ). Half maximal inhibitory concentration (IC50) was determined by fitting the curve using 4-parameter sigmoidal function in GraphPad Prism. Each independent experiment was performed in technical triplicates.

STUB1 (aa25-aa153) = test: Thermal shift assay (SYPRO Orange); assay type: binding; conditions: 100 µM peptide, 10 µM protein, relative to DMSO vehicle, mean ± s.d. from three independent experiments
Excerpt: The SYPRO Orange fluorescent dye (Invitrogen) was used to measure the thermal stability of recombinant STUB1 protein (aa25-aa153). With increasing temperature, binding of the dye molecule to the hydrophobic region of the denatured STUB1 results in an increase in the fluorescence intensity. The midpoint of this transition is termed the Tm. Binding of a ligand, such as peptide, stabilizes the protein and results in a melting temperature shift (ΔTm), which correlates with the binding affinity of the ligand. The thermal shift assay was conducted in a CFX96 real-time PCR detection system (Bio-Rad). A total of 50 µl mixture containing 3.125 × SYPRO Orange (Invitrogen, diluted from 5000 × DMSO stock), 100 µM peptide of interest, and 10 µM protein was prepared in a PCR 8-well strip tube. The samples were heated from 25 to 95 °C in 0.5 °C increment each cycle. The holding time for each cycle is 5 s, after which the fluorescence intensity was measured in Channel 2 (HEX) with Ex/Em: 515–535/560–580 nm. Each independent experiment was performed in technical duplicates.

STUB1 (aa25–aa153) [2] = target: T1, STUB1 (aa25–aa153); test: Isothermal titration calorimetry; assay type: binding; conditions: ITC
Method: Recombinant STUB1 protein, spanning aa25-aa153, was produced by Nanyang Technological University protein production platform. The purity and identity of the protein was confirmed by mass spectrometry and SDS-PAGE. Synthetic peptides, in a form of N-acetylation and free C-terminal carboxylic acid, were custom made by Chinese Peptide Company (CPC). The purity and identity of the peptides were confirmed by analytic HPLC (≥ 95% purity) and mass spectrometry. Peptides are dissolved in neat DMSO as 10 mM stock solution and diluted thereof for subsequent experiments.
Recombinant STUB1 protein (aa25-aa153) was dialyzed overnight with Slide-A-Lyzer cassette (7 K MWCO, Thermo Scientific, #66373) in 1 L of dialysis buffer (PBS, pH 7.4, 0.5 mM TCEP). The dialyzed protein solution was centrifuged at 15,000 rpm for 10 min at 4 °C to remove potential precipiates. The protein was diluted to 20 µM using the dialysis buffer, followed by the additon of DMSO spike-in (2% final concentration). The synthetic peptides (10 mM in DMSO) were diluted to 200 µM with the dialysis buffer (2% final DMSO concentration). ITC measurements were performed at 25 °C using a Microcal PEAQ-ITC (Malvern Panalytical Inc). An initial injection of 0.4 µl followed by a total of 39 injections of peptide solution (1 µl, 200 µM) were added at an intervals of 2 min into the protein solution (20 µM) while stirring at 750 rpm. The data point produced by the first injection was discarded prior to curve fitting in order to account for the diffusion effect during the equilibration process. The experimental data were fitted to a non-interacting one-site binding model using the analysis software supplied by Microcal, with ΔH (enthalpy change), Ka (association constant) and N (number of binding sites per monomer) as adjustable parameters. Free energy change (ΔG) and entropy contributions (TΔS) were determined from the standard equation: ΔG = ΔH − TΔS = − RT lnKa, where T is the absolute temperature and R = 1.987 cal mol^−1 K^−1.

STUB1 [3] = tested on: STUB1; design: method as in PMID 31320752; conditions: cited from earlier work
STUB1 [4] = test: Co-immunoprecipitation of FLAG-mCherry2-peptide and STUB1; assay type: binding, murine
Method: B16-F10 cells stably expressing the biologic were harvested, rinsed with PBS, and lysed with chilled cell lysis buffer (Cell Signaling Technology, #9803) supplemented with Halt protease inhibitor cocktail (Life Technologies, #78430) and phosphatase inhibitor (Sigma-Aldrich, # 4906837001). Cellular lysates were clarified by centrifugation at 15,000 rpm at 4 °C for 15 min. Protein concentration was determined using BCA protein assay kit (Pierce, #23225). For each sample of the co-immunoprecipitation (co-IP), 20 µl of anti-FLAG magnetic beads (Sigma-Aldrich, M8823) was rinsed twice with 0.2 ml PBS, followed by addition of 500 µl diluted cellular lysate (60 µg, 0.12 µg µl^−1). For competitive inhibition, synthetic peptide (SIWWPD) was added into the co-IP mixture. The resulting mixture was rotated at room temperature for 4 h, after which the beads were rinsed with 3 × 0.5 ml PBS to remove the unbound proteins. Bound protein complexes were directly eluted with a 20 µl solution of LDS sample buffer (Life Technologies, NP0008) supplemented with sample reducing agent (Life Technologies, NP0009), followed by heating at 70 °C for 10 min. […] Blotting was similar to the Western Blot section described above. Primary antibodies used were: STUB1/CHIP (Cell Signaling Technology, #2080, 1:1000 dilution), FLAG (Sigma-Aldrich, F1804, 1:1000 dilution). […]

A549 cells [5] = test: Flow cytometry, surface IFNGR1, mCherry2-peptide stable cells; assay type: cell-based; conditions: A549, stable expression; untreated or human IFNγ 0.01 ng ml^−1, 24 h
Excerpt: (§1) To generate the plasmids, gBlocks gene fragments (IDT) encoding the inhibitory biologic (FLAG-mCherry2-GGSGGS-SIWWPD) and the control biologic (FLAG-mCherry2-GGSGGS-SIWWHR) were cloned into pEF6 vector (Thermo Fisher Scientific) by standard restriction enzyme digestion and T4 DNA ligation. The final constructs were verified by Sanger sequencing. Coding sequences of the constructs are provided in Supplementary Table S5. To generate the stable cell lines, a total of 2 × 10^5 B16-F10, A375 or A549 cells were electroporated with 200 ng plasmid using DJ-110, FF-120 or CM-130 respectively—the preset programmed in 4D-nucleofector system (Lonza). The preparation of the cell suspension and the process of the electroporation are similar to that described in the CRISPR method section. The stable cell lines were selected using 10 µg ml^−1 blasticidin three days post-electroporation and were maintained in 5 µg ml^−1 blasticidin once the stable colonies were established. […]
(§2) Cells were dissociated from the wells with 0.25% trypsin (Gibco, 25200056). […] Cells were analyzed on LSRFortessa X-20 (BD Biosciences) with appropiate fluorescence compensation. The data were analyzed using FlowJo. […]

A375 cells [6] = test: as above; assay type: cell-based; conditions: A375, stable expression; untreated or human IFNγ 0.01 ng ml^−1, 24 h
Excerpt: as §1, §2

B16-F10 cells = test: as above; assay type: cell-based, murine; conditions: stable expression; resting and IFNγ-stimulated (mouse IFNγ 0.03 ng ml^−1, 24 h)
Excerpt: as §1, §2

A549 cells [7] = test: Flow cytometry, surface MHC-I, mCherry2-peptide stable cells; assay type: cell-based; conditions: A549, stable expression; human IFNγ 0.01 ng ml^−1, 24 h
Excerpt: as §1, §2

A375 cells [8] = test: as above; assay type: cell-based; conditions: A375, stable expression; human IFNγ 0.01 ng ml^−1, 24 h
Excerpt: as §1, §2

| Molecule | IC50 (STUB1 (aa25–aa153) [1]) [µM] | ΔTm (STUB1 (aa25-aa153)) [°C] | Binding to STUB1 (STUB1 (aa25–aa153) [2]) | Kd (STUB1 (aa25–aa153) [2]; PBS pH 7.4, 0.5 mM TCEP, 2% DMSO, 25 °C, 200 µM peptide into 20 µM protein) [µM] | Blocking of STUB1 interaction with HSPA8 (STUB1 [3]) | Reversal of co-immunoprecipitation by synthetic peptide (STUB1 [4]; spiked into co-IP mixture, room temperature, 4 h) | Cell surface IFNGR1 (A549 cells [5]) | Cell surface IFNGR1 (A375 cells [6]) | Cell surface IFNGR1 (B16-F10 cells) | Cell surface MHC-I (A549 cells [7]) | Cell surface MHC-I (A375 cells [8]) | Co-precipitation of STUB1 (STUB1 [4]; B16-F10 lysate, anti-FLAG) |
| --- | --- | --- | --- | --- | --- | --- | --- | --- | --- | --- | --- | --- |
| CC[C@H](C)[C@H](NC(=O)[C@H](CO)NC(C)=O)C(=O)N[C@@H](Cc1c[nH]c2ccccc12)C(=O)N[C@@H](Cc1c[nH]c2ccccc12)C(=O)N[C@@H](Cc1c[nH]cn1)C(=O)N[C@@H](CCCNC(=N)N)C(=O)O [SIWWHR] (Ac-SIWWHR-OH) | > 100 | -0.1 ± 0.2 | non-binding | > 10 | – | – | – | – | – | – | – | – |
| CC[C@H](C)[C@H](NC(=O)[C@H](CO)NC(C)=O)C(=O)N[C@@H](Cc1c[nH]c2ccccc12)C(=O)N[C@@H](Cc1c[nH]c2ccccc12)C(=O)N1CCC[C@H]1C(=O)N[C@@H](CC(=O)O)C(=O)O [SIWWPD, reference compound] (Ac-SIWWPD-OH) | – | 18.3 ± 0.1 | bound strongly to the protein | – | capable of blocking the interaction of STUB1 with HSPA8 | completely reversible in a dose-dependent manner | – | – | – | – | – | – |
| mCherry2-SIWWPD | – | – | – | – | – | – | also resulted in the same phenotype | also resulted in the same phenotype | upregulation of IFNGR1 on the cell surface of B16-F10, under both resting and IFNγ-stimulating conditions | boost the surface levels of MHC-I in response to IFNγ | boost the surface levels of MHC-I in response to IFNγ | STUB1 was co-precipitated |
